Test results: patent US20190241962A1, “GENETIC SUSCEPTIBILITY DIAGNOSIS AND TREATMENT OF MENTAL DISORDERS” (priority 2016, published 2019)
Entries after “also recorded” stand apart in the source; their conditions may differ.

Assays:
[1] = tested on: FAAH; assay: RT-PCR FAAH mRNA level in the cortex; assay type: in vivo, mice
Procedure: (§1) 100 microliters of 2-propanol was added. […] RNA was stored at −80 deg C.

[2] = tested on: Sabra mice; assay: Open-field test, ambulation behavior, PCP mouse model of schizophrenia
[3] = tested on: MGL; assay: RT-PCR MGL mRNA level in the cortex; assay type: in vivo, mice
Procedure: as §1

[4] = tested on: GAD67; assay: RT-PCR GAD67 mRNA level in the cortex; assay type: in vivo, mice
Procedure: as §1

[5] = tested on: NAPE-PLD; assay: RT-PCR NAPE-PLD mRNA level in the cortex; assay type: in vivo, mice
Procedure: as §1

[6] = tested on: IL-6; assay: RT-PCR IL-6 mRNA level in the cortex; assay type: in vivo, mice
Procedure: as §1

[7] = tested on: CB1 receptor; assay: RT-PCR CB1 receptor mRNA level in the cortex; assay type: in vivo, mice
Procedure: as §1

[8] = tested on: CB2 receptor; assay: RT-PCR CB2 receptor mRNA level in the cortex; conditions: PCP vs control group
Procedure: Each brain area was placed in an Eppendorf vessel and covered with RNAlater® solution (Ambion). Eppendorfs were stored overnight at 4° C. and then stored at (−)80° C. for permanent use.
Twenty microliters of 1-bromo-3-chloropropane were added and the Eppendorf was vortexed. After 10 min at room temperature it was centrifuged at 12,000×g for 15 minutes at 4° C. Then the colorless upper aqueous phase was removed to a fresh tube. 100 microliters of 2-propanol was added. Samples were centrifuged again 12,000×g for 10 minutes at 4° C. The supernatant was removed and the RNA pellet was washed with 200 ul cold 75% ethanol. The sample was re-centrifuged at 8000×g for 5 minutes at 4° C. The RNA pellet was dried for 5 minutes by air-drying on ice and 50 ul DEPC water were added to the RNA pellet. RNA was stored at −80 deg C. Genomic DNA strands were then removed by Turbo DNA-free Kit according to manufacturer's recommendation. RNA level was read by Nanodrop® reader. cDNA was prepared according to the manufacturer recommendation using High Capacity cDNA Reverse Transcription Kit (Applied Biosystems).
RT-PCR reaction mix was prepared with Power SYBR® Green PCR Master Mix (Applied Biosystems) according to manufacturer instructions. Mixes were read with Mx300P (Stratagen) and the results of Ct were analysed according to the delta-delta Ct method of analysis.

[9] = tested on: ABHD6; assay: RT-PCR ABHD6 mRNA level in the cortex; assay type: in vivo, mice
Procedure: as §1

[10] = tested on: endocannabinoid catabolic enzymes (FAAH, MGL, ABHD6); assay: RT-PCR mRNA level of endocannabinoid catabolic enzymes in cortex and brainstem; assay type: in vivo, mice; conditions: BCP after exposure to phencyclidine, females
Procedure: as §1

[11] = PCP vs control group, female mice, left cortex
[12] = PCP vs control group, male mice, left cortex
[13] = PCP vs control group, female mice, right and left cortices
[14] = PCP vs control group, male mice, cortex
[15] = PCP vs control group, female mice, right cortex
[16] = PCP vs control group, male mice, right cortex
[17] = BCP after PCP, female mice, cortex
[18] = BCP after PCP, female mice, right and left cortices
[19] = BCP after PCP, male mice, cortex

In the case of c1ccc(C2(N3CCCCC3)CCCCC2)cc1 [PCP, Phencyclidine], the “FAAH mRNA level” value [1, 11] is reported as “significantly decreased; also recorded: reduced”, the ambulation behavior ([2]; PCP 5 mg/kg vs control group, Sabra female mice) is reported as “reduced” and the ambulation behavior ([2]; PCP 5 mg/kg vs control group, Sabra male mice) is reported as “elevated”. For the same molecule, the “MGL mRNA level” value [3, 11] was “significantly decreased; also recorded: reduced”, the “MGL mRNA level” value [3, 12] was “not in males” and the “GAD67 mRNA level” value [4, 13] was “reduced”. For the same molecule, the “GAD67 mRNA level” value [4, 14] was “not altered”, the “NAPE-PLD mRNA level” value [5, 13] was “reduced” and the “NAPE-PLD mRNA level” value [5, 14] was “not altered”. The “IL-6 mRNA level” value [6, 11] was “not in the left cortex”, the “IL-6 mRNA level” value [6, 15] was “reduced” and the “IL-6 mRNA level” value [6, 12] was “not in the left cortex”. The “IL-6 mRNA level” value [6, 16] was “elevated”, the “CB1 receptor mRNA level” value [7, 15] was “elevated; also recorded: increased” and the “CB1 receptor mRNA level” value [7, 16] was “elevated”. For the same molecule, the “CB2 receptor mRNA level” value ([8]; female mice, right cortex) was “reduced”, the “CB2 receptor mRNA level” value ([8]; left cortex) was “no change” and the “ABHD6 mRNA level” value [9, 11] was “significantly decreased; also recorded: reduced”. For the same molecule, the “ABHD6 mRNA level” value [9, 15] was “not in the right cortex” and the “ABHD6 mRNA level” value [9, 12] was “not in males”.

C=C1CC/C=C(\C)CC[C@@H]2[C@@H]1CC2(C)C [BCP, beta-caryophyllene] was tested, and the “FAAH mRNA level” value [1, 17] was “did not reverse; also recorded: did not alter gene expression of FAAH”, the “FAAH mRNA level” value ([1]; BCP after PCP, male mice) was “reversed the effect of PCP” and the ambulation behavior ([2]; BCP 10 mg/kg one hour after PCP, Sabra female mice) was “reversed altered behavior”. The ambulation behavior ([2]; BCP 10 mg/kg one hour after PCP, Sabra male mice) was “reversed altered behavior”, the “MGL mRNA level” value [3, 17] was “did not reverse; also recorded: did not alter gene expression of MGL” and the “GAD67 mRNA level” value [4, 18] was “did not reverse this effect”. The “GAD67 mRNA level” value [4, 19] was “did not affect the expression level of GAD67 mRNA”, the “NAPE-PLD mRNA level” value [5, 18] was “did not reverse this effect” and the “NAPE-PLD mRNA level” value [5, 19] was “did not affect the expression level of NAPE-PLD mRNA”. For the same molecule, the “IL-6 mRNA level” value [6, 17] was “did not alter gene expression of IL-6”, the “IL-6 mRNA level” value [6, 19] was “reversed the effect of PCP” and the “CB1 receptor mRNA level” value [7, 17] was “did not alter gene expression of CB1 receptor”. For the same molecule, the “CB1 receptor mRNA level” value [7, 19] was “did not alter gene expression of CB1 receptor”, the “mRNA level of the selected endocannabinoid catabolic enzymes” value [10] was “did not lead to significant changes” and the “ABHD6 mRNA level” value [9, 17] was “did not reverse; also recorded: did not alter gene expression of ABHD6”.
